In PubChem BioAssay AID248 (DTP/NCI, 2004):
Several values for one entry are separate records, joined by “and”; a condition that tells them apart may be missing. Equal values may be shown once. Toxic doses and inconclusive results are not listed. Rule as the data show it: active = T/C of 150% or more; inactive = T/C below 125%.

System: L1210 leukemia ip in BDF1 mice, survival T/C
Assay: NCI In Vivo Anticancer Drug Screen. Data for tumor model L1210 Leukemia (intraperitoneal) in B6D2F1 (BDF1) mice
Settings: endpoint: mean survival time, higher = longer survival
Outline: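 Value reflects the ratio of survival in compound-treated mice to survival in vehicle-treated controls, with both groups carrying the same transplanted tumor.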

[1] = dose: 12.5 mg/kg/injection, schedule: Q01DX009 (ip), vehicle: saline
[2] = dose: 25.0 mg/kg/injection, schedule: Q01DX009 (ip), vehicle: saline
[3] = dose: 50.0 mg/kg/injection, schedule: Q01DX009 (ip), vehicle: saline
[4] = dose: 100.0 mg/kg/injection, schedule: Q04DX003 (ip), vehicle: Klucel (hydroxypropylcellulose) (HPC)
[5] = dose: 200.0 mg/kg/injection, schedule: Q04DX003 (ip), vehicle: Klucel (hydroxypropylcellulose) (HPC)
[6] = dose: 100.0 mg/kg/injection, schedule: Q04DX002 (ip), vehicle: saline
[7] = dose: 200.0 mg/kg/injection, schedule: Q04DX002 (ip), vehicle: saline
[8] = dose: 400.0 mg/kg/injection, schedule: Q04DX002 (ip), vehicle: saline
[9] = dose: 100.0 mg/kg/injection, schedule: Q01DX009 (ip), vehicle: saline
[10] = dose: 100.0 mg/kg/injection, schedule: Q01DX001 (ip), vehicle: saline
[11] = dose: 100.0 mg/kg/injection, schedule: Q04DX003 (ip), vehicle: saline with Tween-80
[12] = dose: 200.0 mg/kg/injection, schedule: Q04DX003 (ip), vehicle: saline with Tween-80
[13] = dose: 5.0 mg/kg/injection, schedule: Q01DX001 (ip), vehicle: saline
[14] = dose: 10.0 mg/kg/injection, schedule: Q01DX001 (ip), vehicle: saline
[15] = dose: 20.0 mg/kg/injection, schedule: Q01DX001 (ip), vehicle: saline

Measured: T/C

COC(=O)C1=CCCN(C)C1
inactive: dose: 3.12 mg/kg/injection, schedule: Q01DX009 (ip), vehicle: saline 103 % of control | dose: 6.25 mg/kg/injection, schedule: Q01DX009 (ip), vehicle: saline 101 % of control | [1] 98 % of control | dose: 12.5 mg/kg/injection, schedule: Q04DX003 (ip), vehicle: saline 93 % of control | dose: 20.0 mg/kg/injection, schedule: Q01DX009 (ip), vehicle: saline 93 % of control | dose: 20.0 mg/kg/injection, schedule: Q04DX003 (ip), vehicle: saline 97 % of control | [2] 98 % of control | dose: 25.0 mg/kg/injection, schedule: Q04DX003 (ip), vehicle: saline 95 % of control and 94 % of control | dose: 40.0 mg/kg/injection, schedule: Q01DX009 (ip), vehicle: saline 92 % of control | dose: 40.0 mg/kg/injection, schedule: Q04DX003 (ip), vehicle: saline 94 % of control | [3] 106 % of control | dose: 50.0 mg/kg/injection, schedule: Q04DX003 (ip), vehicle: saline 103 % of control and 94 % of control | dose: 80.0 mg/kg/injection, schedule: Q01DX009 (ip), vehicle: saline 90 % of control | dose: 80.0 mg/kg/injection, schedule: Q04DX003 (ip), vehicle: saline 100 % of control

Cc1ccc(Nc2c3ccccc3nc3ccccc23)c(C)c1
inactive: [4] 96 % of control | [5] 100 % of control

CCOC(=O)CCc1c(C(=O)O)[nH]c(C(=O)OCC)c1C
inactive: dose: 25.0 mg/kg/injection, schedule: Q04DX003 (ip), vehicle: Klucel (hydroxypropylcellulose) (HPC) 102 % of control | dose: 50.0 mg/kg/injection, schedule: Q04DX003 (ip), vehicle: Klucel (hydroxypropylcellulose) (HPC) 107 % of control | dose: 100.0 mg/kg/injection, schedule: Q01DX001 (ip), vehicle: Klucel (hydroxypropylcellulose) (HPC) 98 % of control | [4] 102 % of control | dose: 200.0 mg/kg/injection, schedule: Q01DX001 (ip), vehicle: Klucel (hydroxypropylcellulose) (HPC) 97 % of control | [5] 93 % of control | dose: 400.0 mg/kg/injection, schedule: Q01DX001 (ip), vehicle: Klucel (hydroxypropylcellulose) (HPC) 97 % of control | dose: 400.0 mg/kg/injection, schedule: Q04DX003 (ip), vehicle: Klucel (hydroxypropylcellulose) (HPC) 101 % of control

CCN(C)C(=O)Nc1ccc(N)cc1
inactive: [6] 101 % of control | [7] 104 % of control | [8] 108 % of control

O=C(NC1OCC(O)C(O)C1O)Oc1ccccc1 (configuration not stated)
inactive: [9] 108 % of control | dose: 100.0 mg/kg/injection, schedule: Q04DX003 (ip), vehicle: water 97 % of control | dose: 200.0 mg/kg/injection, schedule: Q01DX009 (ip), vehicle: saline 97 % of control | dose: 200.0 mg/kg/injection, schedule: Q04DX003 (ip), vehicle: water 96 % of control | dose: 400.0 mg/kg/injection, schedule: Q01DX009 (ip), vehicle: saline 101 % of control | dose: 400.0 mg/kg/injection, schedule: Q04DX003 (ip), vehicle: water 100 % of control

COC(=O)c1ccc([N+](=O)[O-])o1
inactive: dose: 50.0 mg/kg/injection, schedule: Q04DX002 (ip), vehicle: Klucel (hydroxypropylcellulose) (HPC) 104 % of control | dose: 100.0 mg/kg/injection, schedule: Q01DX009 (ip), vehicle: Klucel (hydroxypropylcellulose) (HPC) 93 % of control | dose: 100.0 mg/kg/injection, schedule: Q04DX002 (ip), vehicle: Klucel (hydroxypropylcellulose) (HPC) 90 % of control | dose: 200.0 mg/kg/injection, schedule: Q01DX009 (ip), vehicle: Klucel (hydroxypropylcellulose) (HPC) 111 % of control | dose: 200.0 mg/kg/injection, schedule: Q04DX002 (ip), vehicle: Klucel (hydroxypropylcellulose) (HPC) 101 % of control | dose: 400.0 mg/kg/injection, schedule: Q04DX002 (ip), vehicle: Klucel (hydroxypropylcellulose) (HPC) 87 % of control

CC(=O)c1ccc(N2CCNCC2)cc1
inactive: dose: 10.0 mg/kg/injection, schedule: Q01DX001 (ip), vehicle: carboxymethylcellulose (CMC) 115 % of control | dose: 20.0 mg/kg/injection, schedule: Q01DX001 (ip), vehicle: carboxymethylcellulose (CMC) 107 % of control | dose: 40.0 mg/kg/injection, schedule: Q01DX001 (ip), vehicle: carboxymethylcellulose (CMC) 109 % of control

O=C(NCc1ccco1)Nc1ccc([N+](=O)[O-])cc1
inactive: dose: 222.0 mg/kg/injection, schedule: Q01DX Z (ip), vehicle: methylcellulose (MC) 101 % of control | dose: 333.0 mg/kg/injection, schedule: Q01DX Z (ip), vehicle: methylcellulose (MC) 94 % of control | dose: 500.0 mg/kg/injection, schedule: Q01DX Z (ip), vehicle: methylcellulose (MC) 96 % of control

COC(=O)C(NC(=O)C(C)NC(=O)OC(C)(C)C)C(C)O (configuration not stated)
inactive: [10] 101 % of control | dose: 200.0 mg/kg/injection, schedule: Q01DX001 (ip), vehicle: saline 99 % of control | dose: 400.0 mg/kg/injection, schedule: Q01DX001 (ip), vehicle: saline 101 % of control

FC(F)(F)c1cccc(B2OCCNCCO2)c1
inactive: [11] 106 % of control | [12] 95 % of control

CCOC(=O)/C(C#N)=C(\C)CC(C)C
inactive: [13] 101 % of control | [14] 95 % of control | [15] 95 % of control | dose: 40.0 mg/kg/injection, schedule: Q01DX001 (ip), vehicle: saline 98 % of control | dose: 80.0 mg/kg/injection, schedule: Q01DX001 (ip), vehicle: saline 101 % of control | [10] 98 % of control

Ic1ccccc1CNCCc1ccccc1
inactive: dose: 75.0 mg/kg/injection, schedule: Q01DX001 (ip), vehicle: other 93 % of control | dose: 150.0 mg/kg/injection, schedule: Q01DX001 (ip), vehicle: other 96 % of control | dose: 300.0 mg/kg/injection, schedule: Q01DX001 (ip), vehicle: other 96 % of control

Cc1cn(C2CC(F)C(CO)O2)c(=O)[nH]c1=O (configuration not stated)
inactive: [1] 108 % of control | [2] 102 % of control | [3] 117 % of control | dose: 78.0 mg/kg/injection, schedule: Q01DX009 (ip), vehicle: saline 107 % of control | [9] 121 % of control | dose: 130.0 mg/kg/injection, schedule: Q01DX009 (ip), vehicle: saline 115 % of control | dose: 360.0 mg/kg/injection, schedule: Q01DX009 (ip), vehicle: saline 109 % of control

COC(=O)c1ccccc1NC(=S)NC(=O)c1ccc(Cl)cc1Cl
inactive: dose: 100.0 mg/kg/injection, schedule: Q01DX001 (ip), vehicle: saline with Tween-80 92 % of control | dose: 100.0 mg/kg/injection, schedule: Q01DX009 (ip), vehicle: saline with Tween-80 97 % of control and 102 % of control | dose: 100.0 mg/kg/injection, schedule: Q04DX002 (ip), vehicle: saline with Tween-80 101 % of control and 88 % of control | [11] 87 % of control | dose: 200.0 mg/kg/injection, schedule: Q01DX001 (ip), vehicle: saline with Tween-80 92 % of control | dose: 200.0 mg/kg/injection, schedule: Q01DX009 (ip), vehicle: saline with Tween-80 95 % of control and 97 % of control | dose: 200.0 mg/kg/injection, schedule: Q04DX002 (ip), vehicle: saline with Tween-80 103 % of control and 92 % of control | [12] 90 % of control | dose: 400.0 mg/kg/injection, schedule: Q01DX001 (ip), vehicle: saline with Tween-80 89 % of control | dose: 400.0 mg/kg/injection, schedule: Q01DX009 (ip), vehicle: saline with Tween-80 97 % of control and 98 % of control | dose: 400.0 mg/kg/injection, schedule: Q04DX002 (ip), vehicle: saline with Tween-80 106 % of control and 88 % of control | dose: 400.0 mg/kg/injection, schedule: Q04DX003 (ip), vehicle: saline with Tween-80 92 % of control

CN(C)CC1(c2ccccc2)CC[N+](C)(C)C1 (configuration not stated)
inactive: dose: 75.0 mg/kg/injection, schedule: Q01DX001 (ip), vehicle: saline 89 % of control | dose: 150.0 mg/kg/injection, schedule: Q01DX001 (ip), vehicle: saline 93 % of control

O=[N+]([O-])c1ccccc1CN1CCCCC1
inactive: [13] 102 % of control | [14] 102 % of control | [15] 102 % of control

CC(C)(CN=Cc1ccccc1[O-])N=Cc1ccccc1[O-].[O]=[V]
inactive: dose: 50.0 mg/kg/injection, schedule: Q01DX009 (ip), vehicle: saline with Tween-80 98 % of control

O=S(=O)(O)C(O)c1ccccc1 (configuration not stated)
inactive: [6] 97 % of control | [7] 100 % of control | [8] 103 % of control
